The values below come from patent publication US8193239B2, “Substituted 1-cyanoethylheterocyclylcarboxamide compounds” (AstraZeneca AB, priority 2009, dated 2012).

Each structure is given as a SMILES string. Where a name gives a salt, the structure may show the parent alone.

Chain of Recombinant Human (rh) DPP1 (P53634 231-394 limits assumed): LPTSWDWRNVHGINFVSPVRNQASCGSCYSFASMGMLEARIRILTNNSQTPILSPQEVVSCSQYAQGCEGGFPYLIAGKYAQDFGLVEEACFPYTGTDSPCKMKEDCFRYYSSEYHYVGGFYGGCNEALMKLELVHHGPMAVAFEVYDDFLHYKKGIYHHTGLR
Chain of Recombinant Human (rh) DPP1 (P53634 25-134 limits assumed): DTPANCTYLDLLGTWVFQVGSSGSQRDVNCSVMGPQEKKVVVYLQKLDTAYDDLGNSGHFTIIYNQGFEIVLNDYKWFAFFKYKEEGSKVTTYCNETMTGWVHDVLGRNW
Chain of Recombinant Human (rh) DPP1 (P53634 395-463 limits assumed): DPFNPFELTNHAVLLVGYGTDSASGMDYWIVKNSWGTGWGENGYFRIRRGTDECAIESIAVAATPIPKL

This test has as its target Recombinant Human (rh) DPP1 (Homo sapiens, UniProt P53634). In words: Fluorescence Assay for Recombinant Human (rh) DPP1. The following applies: rhDPP1, substrate H-Gly-Arg-AMC, pH5.0, 22° C., pre-incubated 30-60 min; read-out: DPP1 activity, pIC50 (converted). In kind it is biochemical. The protocol:
Fluorescence Assay for Recombinant Human (rh) DPP1
The activity of DPP1 was determined by measuring the enzymatic release of aminomethyl coumarin (AMC) from the peptide substrate (H-Gly-Arg-AMC), which leads to an increase in fluorescence intensity at λex=350 nm and λem=450 nm. The assay was carried out in black 384 well plates in a final volume of 50 μl at 22° C. The assay conditions contained the following: 25 mM piperazine buffer pH5.0; 50 mM NaCl, 5 mM DTT; 0.01% (v/v) Triton X-100; 100 μM H-Gly-Arg-AMC and rhDPP1 ([…]). […] A standard DPP1 inhibitor (vinyl sulfone, see below, or Example 24 from WO2009/074829) was used as a positive control in the assay. Routinely, inhibitors were pre-incubated with rhDPP1 for 30-60 min prior to the addition of the peptide substrate to start the reaction for a further 60 min at 22° C. After that the plates were immediately read in a fluorescence plate reader using the above emission and excitation wavelengths [modified from Kam, C M, Gotz, M G, Koot, G, McGuire, M J, Thiele, D L, Hudig, D & Powers, J C (2004). Arch Biochem Biophys, 427, 123-134 & McGuire, M J, Lipsky, P E & Thiele, D L (1992). Arch Biochem Biophys, 295, 280-288].
Consider `N#C[C@H](Cc1ccc(-c2ccc(C(F)(F)F)cc2)cc1)NC(=O)C1(N)CCOCC1` [Example 1, (S)-4-Amino-N-(1-cyano-2-(4′-(trifluoromethyl)biphenyl-4-yl)ethyl)tetrahydro-2H-pyran-4-carboxamide], for which the IC50 is 0.631 nM.

Consider `CCS(=O)(=O)c1ccc(-c2ccc(C[C@@H](C#N)NC(=O)C3(N)CCOCC3)cc2)cc1` [Example 2, (S)-4-Amino-N-(1-cyano-2-(4′-(ethylsulfonyl)biphenyl-4-yl)ethyl)tetrahydro-2H-pyran-4-carboxamide], for which the IC50 was 0.794 nM.

With `N#C[C@H](Cc1ccc(-c2ccc(F)cc2)cc1)NC(=O)C1(N)CCOCC1` [Example 4, (S)-4-Amino-N-(1-cyano-2-(4′-fluorobiphenyl-4-yl)ethyl)tetrahydro-2H-pyran-4-carboxamide], the IC50 was 0.398 nM.

As to `CC(C)S(=O)(=O)c1ccc(-c2ccc(C[C@@H](C#N)NC(=O)C3(N)CCOCC3)cc2)cc1` [Example 5, (S)-4-Amino-N-(1-cyano-2-(4′-(isopropylsulfonyl)biphenyl-4-yl)ethyl)tetrahydro-2H-pyran-4-carboxamide], the IC50 was 1 nM.

Regarding `CS(=O)(=O)Oc1ccc(-c2ccc(C[C@@H](C#N)NC(=O)C3(N)CCOCC3)cc2)cc1` [Example 6, (S)-4′-(2-(4-Aminotetrahydro-2H-pyran-4-carboxamido)-2-cyanoethyl)biphenyl-4-yl methanesulfonate trifluoroacetic acid salt, methanesulfonate trifluoroacetic acid …], the IC50 was 0.398 nM.

`N#C[C@H](Cc1ccc(-c2ccc(S(=O)(=O)N3CCC3)cc2)cc1)NC(=O)C1(N)CCOCC1` [Example 7, (S)-4-Amino-N-(2-(4′-(azetidin-1-ylsulfonyl)biphenyl-4-yl)-1-cyanoethyl)tetrahydro-2H-pyran-4-carboxamide trifluoroacetic acid salt]: the IC50 was 0.631 nM.

In the case of `N#Cc1cccc(-c2ccc(C[C@@H](C#N)NC(=O)C3(N)CCOCC3)cc2)c1` [Example 8, (S)-4-Amino-N-(1-cyano-2-(3′-cyanobiphenyl-4-yl)ethyl)tetrahydro-2H-pyran-4-carboxamide], the IC50 is 0.794 nM.

As for `COCCn1c(=O)sc2ccc(-c3ccc(C[C@@H](C#N)NC(=O)C4(N)CCOCC4)cc3)cc21` [Example 9, (S)-4-Amino-N-(1-cyano-2-(4-(3-(2-methoxyethyl)-2-oxo-2,3-dihydrobenzo[d]thiazol-5-yl)phenyl)ethyl)tetrahydro-2H-pyran-4-carboxamide trifluoroacetic acid salt], the IC50 was less than 0.316 nM.

Take `CN1C(=O)COc2ccc(-c3ccc(C[C@@H](C#N)NC(=O)C4(N)CCOCC4)cc3)cc21` [Example 10, (S)-4-Amino-N-(1-cyano-2-(4-(4-methyl-3-oxo-3,4-dihydro-2H-benzo[b][1,4]oxazin-6-yl)phenyl)ethyl)tetrahydro-2H-pyran-4-carboxamide trifluoroacetic acid salt]: the IC50 was less than 0.316 nM.

Consider `COCCCn1c(=O)oc2ccc(-c3ccc(C[C@@H](C#N)NC(=O)C4(N)CCOCC4)cc3)cc21` [Example 11, (S)-4-Amino-N-(1-cyano-2-(4-(3-(3-methoxypropyl)-2-oxo-2,3-dihydrobenzo[d]oxazol-5-yl)phenyl)ethyl)tetrahydro-2H-pyran-4-carboxamide trifluoroacetic acid salt], for which the IC50 was less than 0.316 nM.

As to `CS(=O)(=O)Oc1cccc(-c2ccc(C[C@@H](C#N)NC(=O)C3(N)CCOCC3)cc2)c1` [Example 12, (S)-4′-(2-(4-Aminotetrahydro-2H-pyran-4-carboxamido)-2-cyanoethyl)biphenyl-3-yl methanesulfonate], the IC50 is 0.501 nM.

Turning to `N#C[C@H](Cc1ccc(-c2ccc(F)c(F)c2)cc1)NC(=O)C1(N)CCOCC1` [Example 13, (S)-4-Amino-N-(1-cyano-2-(3′,4′-difluorobiphenyl-4-yl)ethyl)tetrahydro-2H-pyran-4-carboxamide trifluoroacetic acid salt], the IC50 is 0.316 nM.

For `N#C[C@H](Cc1ccc(-c2ccc3c(c2)CNC3=O)cc1)NC(=O)C1(N)CCOCC1` [Example 15, (S)-4-Amino-N-(1-cyano-2-(4-(1-oxoisoindolin-5-yl)phenyl)ethyl)tetrahydro-2H-pyran-4-carboxamide], the IC50 is 0.126 nM.

With `CN1Cc2cc(-c3ccc(C[C@@H](C#N)NC(=O)C4(N)CCOCC4)cc3)ccc2S1(=O)=O` [Example 16, (S)-4-Amino-N-{cyano-2-[4-(2-methyl-1,1-dioxido-2,3-dihydro-1,2-benzisothiazol-5-yl)phenyl]ethyl}tetrahydro-2H-pyran-4-carboxamide trifluoroacetic acid salt], the IC50 is 1 nM.

Regarding `Cn1c(=O)oc2ccc(-c3ccc(C[C@@H](C#N)NC(=O)C4(N)CCOCC4)cc3)cc21` [Example 17, (S)-4-amino-N-(1-cyano-2-(4-(3-methyl-2-oxo-2,3-dihydrobenzo[d]oxazol-5-yl)phenyl)ethyl)tetrahydro-2H-pyran-4-carboxamide], the IC50 is 0.316 nM.

Regarding `Cc1ccc(-c2ccc(C[C@@H](C#N)NC(=O)C3(N)CCOCC3)cc2)cc1C#N` [Example 18, (S)-4-Amino-N-(1-cyano-2-(3′-cyano-4′-methylbiphenyl-4-yl)ethyl)tetrahydro-2H-pyran-4-carboxamide trifluoroacetic acid salt], the IC50 was 0.794 nM.

As for `Cc1cc(-c2ccc(C[C@@H](C#N)NC(=O)C3(N)CCOCC3)cc2)ccc1C#N` [Example 19, (S)-4-Amino-N-(1-cyano-2-(4′-cyano-3′-methylbiphenyl-4-yl)ethyl)tetrahydro-2H-pyran-4-carboxamide trifluoroacetic acid salt], the IC50 was less than 0.316 nM.

As for `COc1ccc(-c2ccc(C[C@@H](C#N)NC(=O)C3(N)CCOCC3)cc2)cc1` [Example 20, (S)-4-Amino-N-(1-cyano-2-(4′-methoxybiphenyl-4-yl)ethyl)tetrahydro-2H-pyran-4-carboxamide], the IC50 is 0.794 nM.

Consider `CN1C(=O)Cc2ccc(-c3ccc(C[C@@H](C#N)NC(=O)C4(N)CCOCC4)cc3)cc21` [Example 21, (S)-4-Amino-N-(1-cyano-2-(4-(1-methyl-2-oxoindolin-6-yl)phenyl)ethyl)tetrahydro-2H-pyran-4-carboxamide], for which the IC50 is 0.251 nM.

Consider `N#Cc1cc(-c2ccc(C[C@@H](C#N)NC(=O)C3(N)CCOCC3)cc2)ccc1F` [Example 22, (S)-4-Amino-N-(1-cyano-2-(3′-cyano-4′-fluorobiphenyl-4-yl)ethyl)tetrahydro-2H-pyran-4-carboxamide], for which the IC50 is less than 0.398 nM.

For the compound `CS(=O)(=O)c1cccc(-c2ccc(C[C@@H](C#N)NC(=O)C3(N)CCOCC3)cc2)c1` [Example 23, (S)-4-Amino-N-(1-cyano-2-(3′-(methylsulfonyl)biphenyl-4-yl)ethyl)tetrahydro-2H-pyran-4-carboxamide trifluoroacetic acid salt], the IC50 was 0.631 nM.

For the compound `COCCn1c(=O)oc2ccc(-c3ccc(C[C@@H](C#N)NC(=O)C4(N)CCOCC4)cc3)cc21` [Example 24, (S)-4-Amino-N-(1-cyano-2-(4-(3-(2-methoxyethyl)-2-oxo-2,3-dihydrobenzo[d]oxazol-5-yl)phenyl)ethyl)tetrahydro-2H-pyran-4-carboxamide trifluoroacetic acid salt], the IC50 is 0.2 nM.

For `N#C[C@H](Cc1ccc(-c2ccc(C(N)=O)c(F)c2)cc1)NC(=O)C1(N)CCOCC1` [Example 25, (S)-4-Amino-N-(2-(4′-carbamoyl-3′-fluorobiphenyl-4-yl)-1-cyanoethyl)tetrahydro-2H-pyran-4-carboxamide], the IC50 is 1.26 nM.

For the compound `COc1cc(-c2ccc(C[C@@H](C#N)NC(=O)C3(N)CCOCC3)cc2)ccn1` [Example 26, (S)-4-Amino-N-(1-cyano-2-(4-(2-methoxypyridin-4-yl)phenyl)ethyl)tetrahydro-2H-pyran-4-carboxamide], the IC50 was 1.26 nM.

`N#C[C@H](Cc1ccc(-c2ccc(S(=O)(=O)N3CCOCC3)cc2)cc1)NC(=O)C1(N)CCOCC1` [Example 27, (S)-4-Amino-N-(1-cyano-2-(4′-(morpholinosulfonyl)biphenyl-4-yl)ethyl)tetrahydro-2H-pyran-4-carboxamide trifluoroacetic acid salt]: the IC50 is 1.58 nM.

For `CN1C(=O)CSc2cc(-c3ccc(C[C@@H](C#N)NC(=O)C4(N)CCOCC4)cc3)ccc21` [Example 28, (S)-4-Amino-N-(1-cyano-2-(4-(4-methyl-3-oxo-3,4-dihydro-2H-benzo[b][1,4]thiazin-7-yl)phenyl)ethyl)tetrahydro-2H-pyran-4-carboxamide], the IC50 is 0.398 nM.

In the case of `CN1CCN(S(=O)(=O)c2ccc(-c3ccc(C[C@@H](C#N)NC(=O)C4(N)CCOCC4)cc3)cc2)CC1` [Example 29, (S)-4-Amino-N-(1-cyano-2-(4′-(4-methylpiperazin-1-ylsulfonyl)biphenyl-4-yl)ethyl)tetrahydro-2H-pyran-4-carboxamide], the IC50 is 0.631 nM.

In the case of `CN1Cc2ccc(-c3ccc(C[C@@H](C#N)NC(=O)C4(N)CCOCC4)cc3)cc2C1=O` [Example 30, (S)-4-Amino-N-(1-cyano-2-(4-(2-methyl-3-oxoisoindolin-5-yl)phenyl)ethyl)tetrahydro-2H-pyran-4-carboxamide trifluoroacetic acid salt], the IC50 was 5.01 nM.
